SMILES strings stand for the structures.

In one series the test system is LPS from S. marcascens. Nature of the series: LPS neutralization assay (Limulus amoebocyte lysate, QCL-1000). The conditions noted are these: Table 3; errors estimated ±30%; read-out: IC50 values (μM) for LPS binding, Serratia. The class given is biochemical, Serratia marcascens. The text has this: (§1) The ability of compounds to neutralize endotoxin was detected in vitro by using the chromogenic QCL-1000 kit from BioWhittaker, Inc. (Walkersville, Md.), and as described in their protocol. This Limulus amoebocyte lysate (LAL) assay is quantitative for Gram negative bacterial endotoxin (lipopolysaccharide, LPS). In this assay compounds that are active inhibit the LPS-mediated activation of a proenzyme whose active form would release p-nitroaniline (pNA) from a colorless synthetic substrate producing a yellow color (pNA) whose absorption is monitored spectrophotometrically at 405-410 nm. The initial rate of enzyme activation is proportional to the concentration of endotoxin present.
(§2) Variants of LPS from six Gram negative bacteria were used: E. coli serotypes 0111:B4 (Combrex, Walkersville, Md.) and 055:B5 (Sigma, St. Louis, Mo.); Klebsiella pneumoniae (List Biologies, San Jose, Calif.); Pseudomonas aeruginosa (List Biologies, San Jose, Calif.); Salmonella typhimurium (List Biologies, San Jose, Calif.), and Serratia marcascens (List Biologies, San Jose, Calif.). The concentration of compound required to neutralize a given LPS and therefore to inhibit the Limulus amoebocyte lysate driven by 0.04 units of any given LPS was determined by dose response curves fit by using a standard sigmoidal function to determined the JC50 value for each lopomimetic compound. The 0.04 units corresponds to 0.01 ng LPS from E. coli serotype 055:B5, 0.01 ng LPS from E. coli serotype 0111:B4, 0.003 ng LPS from K. pneumoniae, 0.01 ng LPS from P. aeruginosa, 0.03 ng LPS from S. typhimurium, and 0.03 ng LPS from S. marcascens.

For the next series, the system named is B16F10 tumor cells. Nature of the series: Proliferation of B16F10 tumor cells. The conditions noted are these: read-out: IC50 against B16F10 tumor cells. The format is cell-based, murine.
A further series concerns LPS from S. typhimurium. Nature of the series: LPS neutralization assay (Limulus amoebocyte lysate, QCL-1000). The class given is biochemical, Salmonella typhimurium. To be noted: Table 3; errors estimated ±30%; read-out: IC50 values (μM) for LPS binding, Salmonella.
Source text: as §1, §2

A further series deals with LPS from K. pneumoniae. The description is as above. The format is biochemical, Klebsiella pneumoniae. The conditions noted are these: Table 3; errors estimated ±30%; read-out: IC50 values (μM) for LPS binding, Klebsiella.
Source text: as §1, §2

Series [1] deals with MA148 human ovarian carcinoma. Nature of the series: Proliferation of MA148 tumor cells. The format is cell-based. The conditions noted are these: read-out: IC50 against MA148 tumor cells.
For another series, the system named is E. coli J96. Nature of the series: Bactericidal assay on J96. The class given is cell-based. The conditions noted are these: for IC50: read-out: Bacterial activity on J96 IC50 (conc). From the text:
Pseudomonas aeruginosa type 1 is a clinical, smooth strain isolate stereotyped by using the scheme of Homma et al., Japan. J. Exp. Med. 46, 329-336 (1976) and maintained in the lab by monthly transfer on blood agar plates. E. coli J96, IA2, and H5 are smooth strain, uropathogenic clinical isolates kindly maintained and provided by J. R. Johnson and described in Johnson et al., J. Infect. Disease 173, 920-926 (1996) for J96 and IA2 and in Johnson et al., J. Infect. Disease 173, 746-749 (1996) for H5. J5 is an E. coli rough strain initially referenced by G. R. Siber and discussed in Warren et al., Infect. Immunity 55, 1668-1673 (1987) and is analogous to the smooth strain E. coli 0111:B4 used in the BioWhittaker LAL endotoxin detection and quantitation kit described below. Gram-positive MN8 and MNHO are two patient isolates of Staphylococcus aureus, which were kindly provided by P. M. Schlievert and described in Bohach et al., Rev. Infect. Diseases 11, 75-82 (1989) for MNHO and in Schlievert et al., J. Infect. Diseases 147, 236-242 (1983) for MN8. All cultures are maintained on nutrient agar plates.
Pyrogen-free solutions were used throughout the assay. Log phase bacteria were obtained by transferring an overnight culture or scraping crystals off-85° C glycerol stocks of overnight cultures. Bacteria were washed and resuspended in 0.9% sodium chloride with adjustment to an optical density at 650 nm which yields 3×10^8 CFU/ml. Bacteria were then diluted 1:10 in 0.08 M citrate phosphate buffer, pH 7.0 (prepared by mixing 0.08 M citric acid with 0.08 M dibasic sodium phosphate). Bacteria (0.15 ml) were incubated with the test compound in a final volume of 1.0 ml of buffer. The assay was done in 17×100 polypropylene tubes in a reciprocal water bath shaker at 37° C for 30 minutes. Following this 30 minute (min) incubation. 10-fold dilutions were made in 0.9% sodium chloride. Dilutions were done to 10^−4 and 20 μl of each dilution was streaked across an agar plate. Gram-positive organisms were plated on nutrient agar plates containing 2% agar and Gram-negative organisms were plated on MacConkey agar (2%). Plates were incubated overnight at 37° C and counted the next morning. The dilution containing 10-100 bacteria was counted and the number multiplied by 50 to adjust all counts to the number bacteria killed per milliliter. Compound concentrations were converted to logarithm base ten and graphed. Bactericidal activity was determined by dose response where LD50 values were determined by best fits of a sigmoidal curve to the dose response data.

The test system of another series is HUVEC. Description: EC migration, wound healing assay. The format is cell-based, human. To be noted: 25 μM. Here is the method:
EC migration was measured in the wound healing assay. HUVEC were cultured in triplicate on a 1-mg/ml fibronectin coat in a 24-well tissue culture plate. Cells were grown for 3 days until confluence. When confluent, a wound was made in the well, using a blunt glass pipette. The medium was replaced with medium containing 10 ng/ml bFGF with or without 25 μM compound and at 0, 2, 4, 6, and 8 hours, the wound width was measured at four different predefined places. Photographs were made using an inverted microscope and a Contax 167 MT 35 mm camera.

A further series concerns LPS from P. aeruginosa. Description: LPS neutralization assay (Limulus amoebocyte lysate, QCL-1000). The format is biochemical, Pseudomonas aeruginosa. To be noted: Table 3; errors estimated ±30%; read-out: IC50 values (μM) for LPS binding, P.a.
Source text: as §1, §2

In series [2] the test system is LPS from E. coli serotype 0111:B4. Described as above. The format is biochemical. The conditions noted are these: Table 3; errors estimated ±30%; read-out: IC50 values (μM) for LPS binding, E. coli 0111:B4.
Source text: as §1, §2

Series [3] has as its system LPS from E. coli serotype 055:B5. The series is described as above. The class given is biochemical. The conditions noted are these: Table 3; errors estimated ±30%; read-out: IC50 values (μM) for LPS binding, E. coli 055:B5.
Source text: as §1, §2

A further series has as its system fibroblasts. Description: Proliferation of fibroblasts (general cell toxicity check). The format is cell-based. The conditions noted are these: read-out: concentration giving 50% growth inhibition, fibroblasts.
In another series the test system is bFGF-stimulated HUVEC. Nature of the series: EC proliferation, [3H]-thymidine incorporation, bFGF-stimulated HUVEC (Example 48). The class given is cell-based, human. To be noted: bFGF-stimulated HUVEC; highest dose tested 25 μM. The protocol: Proliferation is expressed as mean counts per minute (cpm) of quadruplicate cultures in three independent experiments (±SEM). […] Human umbilical vein derived EC (HUVEC) were harvested from normal human umbilical cords by perfusion with 0.125% trypsin/EDTA. Harvested HUVECs were cultured in gelatin coated tissue culture flasks and subcultured 1:3 once a week in culture medium (RPM1-1640 with 20% human serum (HS), supplemented with 2 mM glutamine and 100 U/mL penicillin and 0.1 mg/mL streptomycin). Statistical analysis was performed by using the Student's t-test.
In general terms: Incorporation of labelled thymidine or its analogues reports DNA synthesis.

The next series concerns MA148. Nature of the series: Other cells, MA148 (Table 1). The format is cell-based, human.
The test system of the next series is Fibro. Nature of the series: Other cells, Fibro (Table 1). The format is cell-based.
Another series concerns endothelial cell (EC). Description: EC Proliferation Assay, [3H]thymidine incorporation (Example 36, Table 1). The conditions noted are these: read-out: EC proliferation IC50 (conc). The class given is cell-based. The protocol: Human umbilical vein derived EC(HUVEC) were harvested from normal human umbilical cords by perfusion with 0.125% trypsin/EDTA as described in Groenewegen et al., J. Exp. Med. 164, 131-143 (1986). For determination of quiescent EC phenotype isolated ECs were immediately fixed in 1% paraformaldehyde. Human microvascular ECs (MVECs) were isolated. ECs were cultured in fibronectin coated tissue culture flasks in culture medium (RPMJ-1640 with 20% human serum (HS), supplemented with 2 mM glutamine and 100 U/ml penicillin and 0.1 mg/ml streptomycin).
EC proliferation was measured using a [^3H]thymidine incorporation assay. ECs were seeded at 5000 cells/well in flatbottomed tissue culture plates and grown for 3 days, in the absence or presence of regulators, in culture medium. During the last 6 hours of the assay, the culture was pulsed with 0.5μ Ci [methyl-^3H]thymidine/well.

Series [4] concerns EC. Description: EC % apoptosis (Table 1). The format is cell-based, human.
The next series can be described thus: Hemolysis (Table 1). The format is cell-based.
The next series is described as follows: Solubility (Table 1). The format is physicochemical.
Series [5] concerns EC. Nature of the series: EC % total cell death (Table 1). The class given is cell-based, human.
The test system of another series is SCK. Description: Other cells, SCK (Table 1). The format is cell-based.

For `CCCc1cc2c(OCC(=O)NCCN(C)C)c(c1)Cc1cc(CCC)cc(c1OCC(=O)NCCN(C)C)Cc1cc(CCC)cc(c1OCC(=O)NCCN(C)C)Cc1cc(CCC)cc(c1OCC(=O)NCCN(C)C)C2` [Compound 11a], the IC50 with LPS from S. marcascens is more than 5 µM; with B16F10 tumor cells, 15 µM; in the series with LPS from S. typhimurium, 4.1 µM; in the series on LPS from K. pneumoniae, 0.08 µM; in [1] it was 8 µM; in the series with LPS from P. aeruginosa, more than 5 µM. In addition, the IC50 in series [2] is more than 5 µM; in series [3] it was 4.4 µM; with fibroblasts, approximately 20 µM; in the series with bFGF-stimulated HUVEC it was more than 25 µM. The “bactericidal activity (in words)” value in the series with E. coli J96 (in the micromolar range (Table 1)) is “reasonably good bactericidal activity”. Moreover, the “effect on EC migration, wound assay (in words)” value with HUVEC is recorded as “ineffective”.
Regarding `CC(C)(C)c1cc2c(O)c(c1)Cc1cc(C(C)(C)C)cc(c1OCCNC(=N)N)Cc1cc(C(C)(C)C)cc(c1O)Cc1cc(C(C)(C)C)cc(c1OCCNC(=N)N)C2`, the “Other cells 25 μM, MA148” value in the series on MA148 is on record as 100% 100% 100%. Further, in the series on Fibro, the “Other cells 25 μM, Fibro” value is given as 100% 100% 100%. Further, the results for the IC50 with endothelial cell (EC) and with E. coli J96 were 8.3 µM and more than 3.8 µM, respectively. The “EC % Apoptosis 25 μM” value with EC [4] is given as “No effect”. Further, the Hemolysis in the series “Hemolysis (Table 1)” (at 10^−6 M) was 100% at 10^−6 M. For the same compound, the Solubility result in “Solubility (Table 1)” (DMSO/H2O (30/70%), at >80° C., no infl. of pH 2 + 11) is “DMSO/H2O (30/70%) up to 30 mg/ml at >80° C., no infl. of pH 2 + 11”. In addition, the “EC % total cell death” value in the series on EC [5] was found to be 65%. Further, the “Other cells 25 μM, SCK” value in the series with SCK came to 100% 100% 100%.
Consider `CN(C)CCNC(=O)COc1c2cccc1Cc1cccc(c1OCC(=O)NCCN(C)C)Cc1cccc(c1OCC(=O)NCCN(C)C)Cc1cccc(c1OCC(=O)NCCN(C)C)C2` [drawing 7], for which, in the series with MA148, the “Other cells 25 μM, MA148” value was 80%. The “Other cells 25 μM, Fibro” value in the series on Fibro is reported as 0%. Also, the IC50 in the series with endothelial cell (EC) is 2.5 µM; with E. coli J96, more than 3.8 µM. Further, the “EC % Apoptosis 25 μM” value in the series on EC [4] was “No effect”. Further, in “Hemolysis (Table 1)” (at 10^−5 M), the Hemolysis entry is listed as “None at 10^−5 M”. Besides, the Solubility result in “Solubility (Table 1)” (H2O, at pH <7.0, r.t.) is “H2O up to 30 mg/ml at pH <7.0, r.t”. Also, in the series with EC [5], the “EC % total cell death” value is “No effect”. In addition, in the series on SCK, the “Other cells 25 μM, SCK” value was determined as 40%.

Values taken from US8642656B2, “Calixarene-based peptide conformation mimetics, methods of use, and methods of making” (priority 2004, dated 2014).
